Results as given in publication PMC9917201, “Enhanced Antibacterial Activity of Substituted Derivatives of NCR169C Peptide” (International Journal of Molecular Sciences, 2023).
Converted amounts (≈) assume the structure as drawn. Where two headings read alike, the source gives them in different places. Non-standard residues stand in square brackets, D forms with d. Residues, ends and D or L forms follow the SMILES beside them. ξ: configuration not given here. Trp(5-F) = N[C@@H](Cc1c[nH]c2ccc(F)cc12)C(=O)O; ξTrp(5-OMe) = COc1ccc2[nH]cc(CC(N)C(=O)O)c2c1; ξTrp(5-Me) = Cc1ccc2[nH]cc(CC(N)C(=O)O)c2c1

Assays:
Assay type in all cases: cell-based
[1] = system: Acinetobacter baumannii (ATCC 17978)
Excerpt: (§1) The bacterial strains for the antimicrobial assay were obtained from the ATCC (American Type Culture Collection, Manassas, VA, USA) and NCTC (National Collection of Type Cultures, Salisbury, UK). Gram-negative strains were Pseudomonas aeruginosa (ATCC 27853), Escherichia coli (ATCC 8739, ATCC 35218, and ATCC 25922), Salmonella enterica (ATCC 13076), Klebsiella pneumoniae (NCTC 13440), Acinetobacter baumannii (ATCC 17978) and the Gram-positive strains were Enterococcus faecalis (ATCC 29212), Listeria monocytogenes (ATCC 19111), and Staphylococcus aureus (HNCMO112011 and ATCC 25923).
(§2) Determination of antibacterial activity for the peptides was carried out by utilizing a minimum bactericidal concentration (MBC) bioassay. Synthesized peptides were dissolved in sterile water and used from 25 to 0.125 μM in 2-fold dilution series and incubated with ~10^7 log phase bacteria in Potassium-Phosphate Buffer (PPB, pH: 7.4) for three hours as described earlier. After that, 5 μl of each sample was placed on LB agar and the growth of bacteria was monitored after overnight incubation at 37 °C. The lowest concentration of the antimicrobial agents that completely eliminated viable bacteria was considered the minimal bactericidal concentration (MBC).

[2] = system: Enterococcus faecalis (ATCC 29212)
Excerpt: as §1, §2

[3] = system: Escherichia coli (ATCC 8739); settings: ATCC 8739, 3 h, pH 7.4
Excerpt: as §1, §2

[4] = system: Klebsiella pneumoniae (NCTC 13440); settings: NCTC 13440, 3 h, pH 7.4
Excerpt: as §1, §2

[5] = system: Listeria monocytogenes (ATCC 19111); settings: ATCC 19111, 3 h, pH 7.4
Excerpt: as §1, §2

[6] = system: Pseudomonas aeruginosa (ATCC 27853); settings: ATCC 27853, 3 h, pH 7.4
Excerpt: as §1, §2

[7] = system: Salmonella enterica (ATCC 13076); settings: ATCC 13076, 3 h, pH 7.4
Excerpt: as §1, §2

[8] = system: Staphylococcus aureus (HNCMO112011); settings: HNCMO112011, 3 h, pH 7.4
Excerpt: as §1, §2

[9] = system: tested bacteria (ESKAPE pathogens, Listeria monocytogenes, Salmonella enterica); settings: 3 h, pH 7.4
Excerpt: as §1, §2

[10] = Acinetobacter baumannii ATCC 17978, ~10^7 log phase bacteria, 3 h in PPB pH 7.4, peptide 25 to 0.125 μM 2-fold series, plated on LB agar, overnight 37 °C

Compound | Minimal bactericidal concentration (MBC) A. b. [1, 10] [µM] | Minimal bactericidal concentration (MBC) E. f. ([2]; ATCC 29212, 3 h, pH 7.4) [µM] | Minimal bactericidal concentration (MBC) E. c. [3] [µM] | Minimal bactericidal concentration (MBC) K. p. [4] [µM] | Minimal bactericidal concentration (MBC) L. m. [5] [µM] | Minimal bactericidal concentration (MBC) P. a. [6] [µM] | Minimal bactericidal concentration (MBC) S. e. [7] [µM] | Minimal bactericidal concentration (MBC) S. a. [8] [µM] | Minimal bactericidal concentration (MBC) A. b. ([1]; ATCC 17978, 3 h, pH 7.4) [µM] | MBC against most or all of the tested bacteria [9] [µM] | Minimal bactericidal concentration (MBC) E. f. ([2]; Enterococcus faecalis ATCC 29212, ~10^7 log phase bacteria, 3 h in potassium-phosphate buffer (PPB) pH 7.4, peptide 25 to 0.125 μM 2-fold series, 5 μl on LB agar, overnight 37 °C) [µM]
CC[C@H](C)[C@H](NC(=O)[C@H](CCCCN)NC(=O)[C@H](Cc1ccccc1)NC(=O)[C@H](CC(C)C)NC(=O)[C@@H]1CCCN1C(=O)[C@H](CCCCN)NC(=O)[C@H](CCCCN)NC(=O)[C@H](CO)NC(=O)[C@@H](N)CCCCN)C(=O)NC(Cc1c[nH]c2ccc(C)cc12)C(=O)N[C@@H](CCCCN)C(=O)N[C@@H](CO)C(=O)N[C@H](C(=O)N[C@@H](CCC(=O)O)C(=O)N[C@@H](CC(N)=O)C(=O)N[C@H](C(=O)N[C@@H](CO)C(=O)N[C@H](C(=O)N[C@@H](CC(C)C)C(=O)N[C@@H](Cc1c[nH]c2ccccc12)C(=O)N[C@@H](Cc1ccc(O)cc1)C(=O)N[C@@H](CCCCN)C(N)=O)C(C)C)C(C)C)C(C)C (stereo partly shown) [NCR169C17–38C12,17/S-10W^5-Me I] (H-KSKKPLFKI[ξTrp(5-Me)]KSVENVSVLWYK-NH2; N-terminus assumed) | 6.3 (≈ 17.1 µg/mL) | 3.1 (≈ 8.44 µg/mL) | 3.1 (≈ 8.44 µg/mL) | 6.3 (≈ 17.1 µg/mL) | 3.1 (≈ 8.44 µg/mL) | 3.1 (≈ 8.44 µg/mL) | 3.1 (≈ 8.44 µg/mL) | 3.1 (≈ 8.44 µg/mL) |  |  | 
CC[C@H](C)[C@H](NC(=O)[C@H](CCCCN)NC(=O)[C@H](Cc1ccccc1)NC(=O)[C@H](CC(C)C)NC(=O)[C@@H]1CCCN1C(=O)[C@H](CCCCN)NC(=O)[C@H](CCCCN)NC(=O)[C@H](CO)NC(=O)[C@@H](N)CCCCN)C(=O)N[C@@H](C)C(=O)N[C@@H](CCCCN)C(=O)N[C@@H](CO)C(=O)N[C@H](C(=O)N[C@@H](CCC(=O)O)C(=O)N[C@@H](CC(N)=O)C(=O)N[C@H](C(=O)N[C@@H](CO)C(=O)N[C@H](C(=O)N[C@@H](CC(C)C)C(=O)N[C@@H](C)C(=O)N[C@@H](Cc1ccc(O)cc1)C(=O)N[C@@H](CCCCN)C(N)=O)C(C)C)C(C)C)C(C)C [NCR169C17–38W10,20/A,C12,17/S] (H-KSKKPLFKIAKSVENVSVLAYK-NH2) |  | 25 (≈ 61.9 µg/mL) | 6.3 (≈ 15.6 µg/mL) |  | 3.1 (≈ 7.68 µg/mL) | 3.1 (≈ 7.68 µg/mL) | 6.3 (≈ 15.6 µg/mL) | 6.3 (≈ 15.6 µg/mL) | 12.5 (≈ 31 µg/mL) |  | 
CC[C@H](C)[C@H](NC(=O)[C@H](CCCCN)NC(=O)[C@H](Cc1ccccc1)NC(=O)[C@H](CC(C)C)NC(=O)[C@@H]1CCCN1C(=O)[C@H](CCCCN)NC(=O)[C@H](CCCCN)NC(=O)[C@H](CO)NC(=O)[C@@H](N)CCCCN)C(=O)N[C@@H](C)C(=O)N[C@@H](CCCCN)C(=O)N[C@@H](C)C(=O)N[C@H](C(=O)N[C@@H](CCC(=O)O)C(=O)N[C@@H](CC(N)=O)C(=O)N[C@H](C(=O)N[C@@H](C)C(=O)N[C@H](C(=O)N[C@@H](CC(C)C)C(=O)N[C@@H](C)C(=O)N[C@@H](Cc1ccc(O)cc1)C(=O)N[C@@H](CCCCN)C(N)=O)C(C)C)C(C)C)C(C)C [NCR169C17–38W10,20C12,17/A] (H-KSKKPLFKIAKAVENVAVLAYK-NH2) |  |  | 6.3 (≈ 15.4 µg/mL) |  |  | 3.1 (≈ 7.58 µg/mL) | 6.3 (≈ 15.4 µg/mL) | 6.3 (≈ 15.4 µg/mL) | 12.5 (≈ 30.6 µg/mL) |  | 
CC[C@H](C)[C@H](NC(=O)[C@H](CCCCN)NC(=O)[C@H](Cc1ccccc1)NC(=O)[C@H](CC(C)C)NC(=O)[C@@H]1CCCN1C(=O)[C@H](CCCCN)NC(=O)[C@H](CCCCN)NC(=O)[C@H](CO)NC(=O)[C@@H](N)CCCCN)C(=O)N[C@@H](Cc1c[nH]c2ccccc12)C(=O)N[C@@H](CCCCN)C(=O)N[C@@H](CO)C(=O)N[C@H](C(=O)N[C@@H](CCC(=O)O)C(=O)N[C@@H](CC(N)=O)C(=O)N[C@H](C(=O)N[C@@H](CO)C(=O)N[C@H](C(=O)N[C@@H](CC(C)C)C(=O)N[C@@H](Cc1c[nH]c2ccc(F)cc12)C(=O)N[C@@H](Cc1ccc(O)cc1)C(=O)N[C@@H](CCCCN)C(N)=O)C(C)C)C(C)C)C(C)C [NCR169C17–38C12,17/S-20W^5-F-L] (H-KSKKPLFKIWKSVENVSVL[Trp(5-F)]YK-NH2; N-terminus assumed) |  | 3.1 (≈ 8.45 µg/mL) | 3.1 (≈ 8.45 µg/mL) | 3.1 (≈ 8.45 µg/mL) | 3.1 (≈ 8.45 µg/mL) | 6.3 (≈ 17.2 µg/mL) | 3.1 (≈ 8.45 µg/mL) | 1.6 (≈ 4.36 µg/mL) | 3.1 (≈ 8.45 µg/mL) |  | 
CC[C@H](C)[C@H](NC(=O)[C@H](CCCCN)NC(=O)[C@H](Cc1ccccc1)NC(=O)[C@H](CC(C)C)NC(=O)[C@@H]1CCCN1C(=O)[C@H](CCCCN)NC(=O)[C@H](CCCCN)NC(=O)[C@H](CO)NC(=O)[C@@H](N)CCCCN)C(=O)NC(Cc1c[nH]c2ccc(OC)cc12)C(=O)N[C@@H](CCCCN)C(=O)N[C@@H](CO)C(=O)N[C@H](C(=O)N[C@@H](CCC(=O)O)C(=O)N[C@@H](CC(N)=O)C(=O)N[C@H](C(=O)N[C@@H](CO)C(=O)N[C@H](C(=O)N[C@@H](CC(C)C)C(=O)N[C@@H](Cc1c[nH]c2ccccc12)C(=O)N[C@@H](Cc1ccc(O)cc1)C(=O)N[C@@H](CCCCN)C(N)=O)C(C)C)C(C)C)C(C)C (stereo partly shown) [NCR169C17–38C12,17/S-10W^5-MeO I] (H-KSKKPLFKI[ξTrp(5-OMe)]KSVENVSVLWYK-NH2; N-terminus assumed) |  | 1.6 (≈ 4.38 µg/mL) | 3.1 (≈ 8.49 µg/mL) | 1.6 (≈ 4.38 µg/mL) | 1.6 (≈ 4.38 µg/mL) |  | 1.6 (≈ 4.38 µg/mL) | 1.6 (≈ 4.38 µg/mL) | 1.6 (≈ 4.38 µg/mL) | 1.6 | 
CC[C@H](C)[C@H](NC(=O)[C@H](CCCCN)NC(=O)[C@H](Cc1ccccc1)NC(=O)[C@H](CC(C)C)NC(=O)[C@@H]1CCCN1C(=O)[C@H](CCCCN)NC(=O)[C@H](CCCCN)NC(=O)[C@H](CO)NC(=O)[C@@H](N)CCCCN)C(=O)NC(Cc1c[nH]c2ccc(C)cc12)C(=O)N[C@@H](CCCCN)C(=O)N[C@@H](CO)C(=O)N[C@H](C(=O)N[C@@H](CCC(=O)O)C(=O)N[C@@H](CC(N)=O)C(=O)N[C@H](C(=O)N[C@@H](CO)C(=O)N[C@H](C(=O)N[C@@H](CC(C)C)C(=O)N[C@@H](Cc1c[nH]c2ccccc12)C(=O)N[C@@H](Cc1ccc(O)cc1)C(=O)N[C@@H](CCCCN)C(N)=O)C(C)C)C(C)C)C(C)C (stereo partly shown) [NCR169C17–38C12,17/S-10W^5-Me II] (H-KSKKPLFKI[ξTrp(5-Me)]KSVENVSVLWYK-NH2; N-terminus assumed) | 3.1 (≈ 8.44 µg/mL) | 3.1 (≈ 8.44 µg/mL) | 3.1 (≈ 8.44 µg/mL) | 6.3 (≈ 17.1 µg/mL) | 3.1 (≈ 8.44 µg/mL) | 3.1 (≈ 8.44 µg/mL) | 3.1 (≈ 8.44 µg/mL) | 3.1 (≈ 8.44 µg/mL) |  |  | 
CC[C@H](C)[C@H](NC(=O)[C@H](CCCCN)NC(=O)[C@H](Cc1ccccc1)NC(=O)[C@H](CC(C)C)NC(=O)[C@@H]1CCCN1C(=O)[C@H](CCCCN)NC(=O)[C@H](CCCCN)NC(=O)[C@H](CO)NC(=O)[C@@H](N)CCCCN)C(=O)N[C@@H](Cc1c[nH]c2ccccc12)C(=O)N[C@@H](CCCCN)C(=O)N[C@@H](CO)C(=O)N[C@H](C(=O)N[C@@H](CCC(=O)O)C(=O)N[C@@H](CC(N)=O)C(=O)N[C@H](C(=O)N[C@@H](CO)C(=O)N[C@H](C(=O)N[C@@H](CC(C)C)C(=O)NC(Cc1c[nH]c2ccc(C)cc12)C(=O)N[C@@H](Cc1ccc(O)cc1)C(=O)N[C@@H](CCCCN)C(N)=O)C(C)C)C(C)C)C(C)C (stereo partly shown) [NCR169C17–38C12,17/S-20W^5-Me II] (H-KSKKPLFKIWKSVENVSVL[ξTrp(5-Me)]YK-NH2; N-terminus assumed) |  |  | 1.6 (≈ 4.35 µg/mL) | 3.1 (≈ 8.44 µg/mL) | 3.1 (≈ 8.44 µg/mL) | 3.1 (≈ 8.44 µg/mL) | 3.1 (≈ 8.44 µg/mL) | 3.1 (≈ 8.44 µg/mL) | 3.1 (≈ 8.44 µg/mL) |  | 25 (≈ 68 µg/mL)
